Usually EC50 stands for the concentration giving half of the maximal effect. Broadly, the Emax is the maximal effect, on the per cent scale that the assay sets.

These results are taken from patent publication US9388162B2, “Substituted morphinans and the use thereof” (Purdue Pharma L.P., priority 2012, dated 2016).

Common to all, as to format: biochemical
In assay [1] the target is T1, μ-opioid receptors (Homo sapiens (Human), UniProt P35372). As to the kind of experiment: μ-opioid receptor [35S]GTPγS functional assay, HEK-293 cells. The settings on record: μ GTP; for EC50: read-out: Activity Response μ EC50 (nM) [mean ± SEM]; for Emax: relative to DAMGO, read-out: Activity Response μ Emax (%). Here is the method:
(§1) [^35S]GTPγS functional assays were conducted using freshly thawed μ-receptor membranes prepared from a cell line expressing recombinant μ opioid receptor in a HEK-293, CHO or U-2 OS cell background or purchased from a commercial source (Perkin Elmer, Shelton, Conn.; or DiscovRx, Fremont, Calif.). Assay reactions were prepared by sequentially adding the following reagents to binding buffer (100 mM NaCl, 10 mM MgCl2, 20 mM HEPES, pH 7.4) on ice (final concentrations indicated): membrane protein (0.026 mg/mL), saponin ([…]), GDP ([…]) and [^35S]GTPγS (0.20 nM; Perkin Elmer, Shelton, Conn.). The prepared membrane solution (190 μl/well) was transferred to 96-shallow well polypropylene plates containing 10 μl of 20× concentrated stock solutions of the agonist [D-Ala^2, N-methyl-Phe^4 Gly-ol^5]-enkephalin (DAMGO) prepared in dimethyl sulfoxide (DMSO). Plates were incubated for 30 min at about 25° C. with shaking. Reactions were terminated by rapid filtration onto 96-well Unifilter GF/B filter plates (Perkin Elmer, Shelton, Conn.) using a 96-well tissue harvester (Perkin Elmer, Shelton, Conn.) followed by three filtration washes with 200 μl of ice-cold wash buffer (10 mM NaH2PO4, 10 mM Na2HPO4, pH 7.4). Filter plates were subsequently dried at 50° C. for 2-3 hours. BetaScint scintillation cocktail (Perkin Elmer, Shelton, Conn.) was added (50 μl/well) and plates were counted using a Packard Top-Count for 1 min/well. Data were analyzed using the sigmoidal dose-response curve fitting functions in GraphPad PRISM v. 3.0, or an in-house function for non-linear, sigmoidal dose-response curve-fitting.
(§2) μ GTP EC50 is the concentration of a compound providing 50% of the maximal response for the compound at a μ-opioid receptor.
(§3) μ GTP Emax (%) is the maximal effect elicited by a compound relative to the effect elicited by DAMGO, a standard μ agonist. Generally, the μ GTP Emax (%) value measures the efficacy of a compound to treat or prevent pain or other Conditions.
(§4) The following tables provide results on the efficacy of binding and activity response of exemplified Compounds of the Invention at the μ- and κ-opioid receptors. In TABLE 3, binding affinity of certain Compounds of the Invention to the μ- and κ-opioid receptors was determined as described above. In TABLE 4, activity response of certain Compounds of the Invention to the μ- and κ-opioid receptors was determined as described above for functional assays using HEK-293 cells. In TABLE 5, activity response of certain Compounds of the Invention to the μ- and κ-opioid receptors was determined as described above using U-2 OS cells.
Background: GTPγS resists hydrolysis and so accumulates on activated G proteins.

The target in assay [2] is T1, μ-opioid receptors. As to the kind of experiment: μ-opioid receptor [35S]GTPγS functional assay, U-2 OS cells. To be noted: μ GTP; for EC50: read-out: Activity Response μ EC50 (nM) [mean ± SEM]; for Emax: relative to DAMGO, read-out: Activity Response μ Emax (%). Here is the method:
as §1, §2, §3, §4

The target of another assay is κ opioid receptor (Homo sapiens (Human), UniProt P41145). The assay can be described thus: κ-opioid receptor [35S]GTPγS functional assay, U-2 OS cells. The settings on record: κ GTP; for EC50: read-out: Activity Response κ EC50 (nM) [mean ± SEM]; for Emax: relative to U69,593, read-out: Activity Response κ Emax (%). The method, then:
Membranes from HEK-293 cells, CHO or U-2 OS cells expressing the recombinant human kappa opioid receptor (κ) were prepared by lysing cells in ice cold hypotonic buffer (2.5 mM MgCl2, 50 mM HEPES, pH 7.4) (10 mL/10 cm dish) followed by homogenization with a tissue grinder/Teflon pestle. Membranes were collected by centrifugation at 30,000×g for 15 min at 4° C. and pellets were resuspended in hypotonic buffer to a final concentration of 1-3 mg/mL. Protein concentrations were determined using the BioRad protein assay reagent with bovine serum albumen as standard. Aliquots of κ receptor membranes were stored at −80° C.
Functional [^35S]GTPγS binding assays were conducted as follows. κ opioid receptor membrane solution was prepared by sequentially adding final concentrations of 0.026 μg/μl κ membrane protein (in-house), 10 μg/mL saponin, 3 μM GDP and 0.20 nM [^35S]GTPγS to binding buffer (100 mM NaCl, 10 mM MgCl2, 20 mM HEPES, pH 7.4) on ice. The prepared membrane solution (190 μl/well) was transferred to 96-shallow well polypropylene plates containing 10 μl of 20× concentrated stock solutions of agonist prepared in DMSO. Plates were incubated for 30 min at a temperature of about 25° C. with shaking. Reactions were terminated by rapid filtration onto 96-well Unifilter GF/B filter plates (Perkin Elmer, Shelton, Conn.) using a 96-well tissue harvester (Packard) and followed by three filtration washes with 200 μl ice-cold binding buffer (10 mM NaH2PO4, 10 mM Na2HPO4, pH 7.4). Filter plates were subsequently dried at 50° C. for 2-3 hours. Fifty μl/well scintillation cocktail (Perkin Elmer, Shelton, Conn.) was added and plates were counted in a Packard Top-Count for 1 min/well.
κ GTP EC50 is the concentration of a compound providing 50% of the maximal response for the compound at a κ receptor.
κ GTP Emax (%) is the maximal effect elicited by a compound relative to the effect elicited by U69,593.
In TABLE 3, binding affinity of certain Compounds of the Invention to the μ- and κ-opioid receptors was determined as described above. In TABLE 4, activity response of certain Compounds of the Invention to the μ- and κ-opioid receptors was determined as described above for functional assays using HEK-293 cells. In TABLE 5, activity response of certain Compounds of the Invention to the μ- and κ-opioid receptors was determined as described above using U-2 OS cells.

SMILES strings stand for the structures.

In the case of `CCS(=O)(=O)N[C@H]1C[C@@]2(O)[C@H]3Cc4ccc(O)cc4[C@@]2(CCN3CC2CC2)CC1=O` [Compound 42, N-((4bR,7S,8aS,9R)-11-(cyclopropylmethyl)-3,8a-dihydroxy-6-oxo-6,7,8,8a,9,10-hexahydro-5H-9,4b-(epiminoethano)phenanthren-7-yl)ethanesulfonamide], at μ-opioid receptors [1], the EC50 is > 200000 nM and the Emax is 5.5%.
In the case of `O=C1C[C@]23CCN(CC4CC4)[C@H](Cc4ccc(O)cc42)[C@]3(O)C[C@@H]1NS(=O)(=O)c1ccccc1` [Compound 43, N-((4bR,7S,8aS,9R)-11-(cyclopropylmethyl)-3,8a-dihydroxy-6-oxo-6,7,8,8a,9,10-hexahydro-5H-9,4b-(epiminoethano)phenanthren-7-yl)benzenesulfonamide], on μ-opioid receptors [1], the concentration giving a half-maximal response (EC50) was > 200000 nM and the Emax was 0%.
In the case of `O=C1C[C@]23CCN(CC4CC4)[C@H](Cc4ccc(O)cc42)[C@]3(O)C[C@@H]1CC1CCCCC1` [Compound 70, (4bR,7S,8aS,9R)-7-(cyclohexylmethyl)-11-(cyclopropylmethyl)-3,8a-dihydroxy-8,8a,9,10-tetrahydro-5H-9,4b-(epiminoethano)phenanthren-6(7H)-one], the EC50 at μ-opioid receptors [2] is > 200000 nM; on κ opioid receptor, 4.01 ± 0.47 nM. Moreover, the Emax was determined as 3.5% on μ-opioid receptors [2] and 106 ± 3.8% at κ opioid receptor.
For `O=C1C[C@]23CCN(CC4CC4)[C@H](Cc4ccc(O)cc42)[C@]3(O)C[C@@H]1Cc1ccccc1` [Compound 71, (4bR,7S,8aS,9R)-7-benzyl-11-(cyclopropylmethyl)-3,8a-dihydroxy-8,8a,9,10-tetrahydro-5H-9,4b-(epiminoethano)phenanthren-6(7H)-one], in that order: 6.76 ± 1.73 nM, 5.6 ± 0.72 nM, 17.7 ± 0.88% and 109 ± 5.45%.
For `C[C@H](NC(=O)C[C@H]1C[C@@]2(O)[C@H]3Cc4ccc(O)cc4[C@@]2(CCN3C)CC1=O)C(=O)O` [Compound 75, (2-((4bR,7R,8aS,9R)-3,8a-dihydroxy-11-methyl-6-oxo-6,7,8,8a,9,10-hexahydro-5H-9,4b-(epiminoethano)phenanthren-7-yl)acetyl)-L-alanine], on μ-opioid receptors [2], the EC50 is 1150 ± 103 nM and the Emax was determined as 95 ± 1.53%. Besides, on κ opioid receptor, the EC50 came to 16600 ± 1190 nM and the Emax was found to be 66.7 ± 1.2%.
In the case of `COc1ccc2c(c1)[C@]13CCN(C)[C@H](C2)[C@]1(O)C[C@H](CC(=O)N1CCCCC1)C(=O)C3` [Compound 76, (4bR,7R,8aS,9R)-8a-hydroxy-3-methoxy-11-methyl-7-(2-oxo-2-(piperidin-1-yl)ethyl)-8,8a,9,10-tetrahydro-5H-9,4b-(epiminoethano)phenanthren-6(7H)-one], at μ-opioid receptors [2], the EC50 is 16700 ± 2270 nM and the maximal response (Emax) was 61.7 ± 1.86%. Moreover, on κ opioid receptor, the half-maximal effective concentration (EC50) is > 200000 nM and the maximal effect (Emax) worked out at 47.7 ± 2.19%.
For `COc1ccc2c(c1)[C@]13CCN(C)[C@H](C2)[C@]1(O)C[C@H](CC(=O)N1CCCC1)C(=O)C3` [Compound 77, (4bR,7R,8aS,9R)-8a-hydroxy-3-methoxy-11-methyl-7-(2-oxo-2-(pyrrolidin-1-yl)ethyl)-8,8a,9,10-tetrahydro-5H-9,4b-(epiminoethano)phenanthren-6(7H)-one], the EC50 at μ-opioid receptors [2] is 17600 ± 3650 nM; at κ opioid receptor, > 200000 nM. In addition, the Emax on μ-opioid receptors [2] was found to be 77 ± 2.08%; at κ opioid receptor, 49 ± 9.45%.
As to `COc1ccc2c(c1)[C@]13CCN(C)[C@H](C2)[C@]1(O)C[C@H](CC(=O)N1CCC(O)CC1)C(=O)C3` [Compound 78, (4bR,7R,8aS,9R)-8a-hydroxy-7-(2-(4-hydroxypiperidin-1-yl)-2-oxoethyl)-3-methoxy-11-methyl-8,8a,9,10-tetrahydro-5H-9,4b-(epiminoethano)phenanthren-6(7H)-one], the EC50 on μ-opioid receptors [2] was 10400 ± 4810 nM; on κ opioid receptor it was > 200000 nM. The maximum response (Emax) on μ-opioid receptors [2] is 36.7 ± 9.17%; at κ opioid receptor, 53.3 ± 1.45%.
Turning to `COc1ccc2c(c1)[C@]13CCN(C)[C@H](C2)[C@]1(O)C[C@H](CC(=O)N1CCOCC1)C(=O)C3` [Compound 79, (4bR,7R,8aS,9R)-8a-hydroxy-3-methoxy-11-methyl-7-(2-morpholino-2-oxoethyl)-8,8a,9,10-tetrahydro-5H-9,4b-(epiminoethano)phenanthren-6(7H)-one], the EC50 on μ-opioid receptors [2] is 11700 ± 3620 nM; on κ opioid receptor, > 200000 nM. Moreover, the Emax on μ-opioid receptors [2] turned out to be 60 ± 10.2%; at κ opioid receptor, 51 ± 0.58%.
On to `CN1CC[C@]23CC(=O)[C@@H](CC(=O)N4CCCCC4)C[C@@]2(O)[C@H]1Cc1ccc(O)cc13` [Compound 80, (4bR,7R,8aS,9R)-3,8a-dihydroxy-11-methyl-7-(2-oxo-2-(piperidin-1-yl)ethyl)-8,8a,9,10-tetrahydro-5H-9,4b-(epiminoethano)phenanthren-6(7H)-one], for which the EC50 was determined as 581 ± 22.1 nM on μ-opioid receptors [2] and 1200 ± 114 nM on κ opioid receptor. In addition, the Emax turned out to be 74 ± 0.58% at μ-opioid receptors [2] and 43 ± 1.73% at κ opioid receptor.
On to `CN1CC[C@]23CC(=O)[C@@H](CC(=O)N4CCC(O)CC4)C[C@@]2(O)[C@H]1Cc1ccc(O)cc13` [Compound 81, (4bR,7R,8aS,9R)-3,8a-dihydroxy-7-(2-(4-hydroxypiperidin-1-yl)-2-oxoethyl)-11-methyl-8,8a,9,10-tetrahydro-5H-9,4b-(epiminoethano)phenanthren-6(7H)-one], for which the EC50 was found to be 1000 ± 276 nM on μ-opioid receptors [2] and 6510 ± 1190 nM on κ opioid receptor. Besides, the Emax at μ-opioid receptors [2] turned out to be 84.3 ± 3.84%; on κ opioid receptor, 34 ± 2.65%.
Regarding `CC(C)CNC(=O)C[C@H]1C[C@@]2(O)[C@H]3Cc4ccc(O)cc4[C@@]2(CCN3C)CC1=O` [Compound 82, 2-((4bR,7R,8aS,9R)-3,8a-dihydroxy-11-methyl-6-oxo-6,7,8,8a,9,10-hexahydro-5H-9,4b-(epiminoethano)phenanthren-7-yl)-N-isobutylacetamide], at μ-opioid receptors [1], the EC50 was 2330 ± 200 nM and the Emax was 67.8 ± 4.01%.
For `CN1CC[C@]23CC(=O)[C@@H](CC(=O)NCc4ccccc4)C[C@@]2(O)[C@H]1Cc1ccc(O)cc13` [Compound 83, N-benzyl-2-((4bR,7R,8aS,9R)-3,8a-dihydroxy-11-methyl-6-oxo-6,7,8,8a,9,10-hexahydro-5H-9,4b-(epiminoethano)phenanthren-7-yl)acetamide], in that order: 456 ± 36.7 nM and 75 ± 5.51%.
